Results as given in ChEMBL document CHEMBL5579851, “Synthesis and antifungal evaluation of novel triazole derivatives bearing a pyrazole-methoxyl moiety” (Eur J Med Chem, 2024).
Converted amounts (≈) assume the structure as drawn. The source made the active and inactive calls. The rule behind the calls is not given here.

Tests used:
Saccharomyces cerevisiae [1] = test: Antifungal activity against recombinant Saccharomyces cerevisiae Y2513 overexpressing ScErg11 Y140H mutant assessed as inhibition of fungal growth incubated for 48 hrs by CLSI based broth microdilution assay; assay type: functional
Saccharomyces cerevisiae [2] = test: Antifungal activity against recombinant Saccharomyces cerevisiae Y2459 overexpressing CaErg11/CaCpr assessed as inhibition of fungal growth incubated for 48 hrs by CLSI based broth microdilution assay; assay type: functional
Saccharomyces cerevisiae [3] = test: Antifungal activity against recombinant Saccharomyces cerevisiae Y2766 overexpressing CauCdr1 assessed as inhibition of fungal growth incubated for 48 hrs by CLSI based broth microdilution assay; assay type: functional
[Candida] auris [4] = Antifungal activity against fluconazole-resistant Candida auris 891 assessed as inhibition of fungal growth incubated for 48 hrs by CLSI based broth microdilution assay; assay type: functional; details: Candidozyma auris
Saccharomyces cerevisiae [5] = test: Antifungal activity against recombinant Saccharomyces cerevisiae Y2711 overexpressing CnErg11 assessed as inhibition of fungal growth incubated for 48 hrs by CLSI based broth microdilution assay; assay type: functional
Candida albicans [6] = test: Antifungal activity against Candida albicans SC5314 assessed as inhibition of hyphae formation at 0.625 ug/ml after 3 hrs by inverted microscopic analysis relative to control; assay type: functional
Candida albicans [7] = test: Antifungal activity against Candida albicans 10231 assessed as inhibition of fungal growth incubated for 48 hrs by CLSI based broth microdilution assay; assay type: functional
Saccharomyces cerevisiae [8] = test: Antifungal activity against recombinant Saccharomyces cerevisiae Y2301 overexpressing ScErg11 Y140F mutant assessed as inhibition of fungal growth incubated for 48 hrs by CLSI based broth microdilution assay; assay type: functional
Candida parapsilosis [9] = test: Antifungal activity against Candida parapsilosis 22019 assessed as inhibition of fungal growth at 0.125 ug/ml measured up to 48 hrs by TECAN plate reader analysis; assay type: functional, organism-based; details: dose 0.125 µg/ml
Candida parapsilosis [10] = test: Antifungal activity against Candida parapsilosis 22019 assessed as inhibition of fungal growth incubated for 48 hrs by CLSI based broth microdilution assay; assay type: functional; details: Lodderomyces parapsilosis
Saccharomyces cerevisiae [11] = test: Antifungal activity against recombinant Saccharomyces cerevisiae Y2716 overexpressing CpErg11 Y132F mutant/ CpCpr assessed as inhibition of fungal growth incubated for 48 hrs by CLSI based broth microdilution assay; assay type: functional
Saccharomyces cerevisiae [12] = test: Antifungal activity against recombinant Saccharomyces cerevisiae Y2462 overexpressing ScErg11/ScNcp1 assessed as inhibition of fungal growth incubated for 48 hrs by CLSI based broth microdilution assay; assay type: functional
Saccharomyces cerevisiae [13] = test: Antifungal activity against recombinant Saccharomyces cerevisiae Y2411 overexpressing ScErg11 assessed as inhibition of fungal growth incubated for 48 hrs by CLSI based broth microdilution assay; assay type: functional
Candida albicans [14] = test: Antifungal activity against fluconazole-resistant Candida albicans 904 assessed as inhibition of fungal growth incubated for 48 hrs by CLSI based broth microdilution assay; assay type: functional
Candida albicans [15] = test: Antibiofilm activity against Candida albicans SC5314 assessed as inhibition of biofilm formation at 64 ug/mL incubated for 24 hrs by XTT assay relative to control; assay type: functional
Candida albicans [16] = test: Antifungal activity against Candida albicans SC5314 assessed as inhibition of fungal growth at 0.125 ug/ml after 48 hrs by TECAN plate reader analysis relative to control; assay type: functional
[17] = target: T1, Lanosterol 14-alpha demethylase (Candida albicans (strain SC5314 / ATCC MYA-2876) (Yeast), UniProt P10613); test: Inhibition of CYP51 in Candida albicans SC5314 assessed as lanosterol level at 0.0625 ug/ml after 8 hrs by GC-MS analysis (reference value: 5.9 %); set-up: scale not given: the % may be the effect or the level left; details: at 0.0625 µg/mL
[18] = target: T1, Lanosterol 14-alpha demethylase; test: Inhibition of CYP51 in Candida albicans SC5314 assessed as 14alpha-methylfecosterol level at 0.0625 ug/ml after 8 hrs by GC-MS analysis relative to control; set-up: scale not given: the % may be the effect or the level left; details: at 0.0625 µg/mL
[19] = target: T1, Lanosterol 14-alpha demethylase; test: Inhibition of CYP51 in Candida albicans SC5314 assessed as obtusifoliol level at 0.0625 ug/ml after 8 hrs by GC-MS analysis relative to control; set-up: scale not given: the % may be the effect or the level left; details: at 0.0625 µg/mL
Candida tropicalis [20] = test: Potency index, ratio of ravuconazole MIC to test compound MIC for antifungal activity against Candida tropicalis 8915 assessed as inhibition of fungal growth incubated for 48 hrs by CLSI based broth microdilution assay; assay type: functional
Cryptococcus neoformans = test: Antifungal activity against Cryptococcus neoformans 32609 assessed as inhibition of fungal growth incubated for 72 hrs by CLSI based broth microdilution assay; assay type: functional
Nakaseomyces glabratus [21] = test: Antifungal activity against Candida glabrata 537 assessed as inhibition of fungal growth at 2 ug/ml measured up to 48 hrs by TECAN plate reader analysis; assay type: functional, organism-based; details: dose 2.0 µg/ml
Saccharomyces cerevisiae [22] = test: Antifungal activity against recombinant Saccharomyces cerevisiae Y525 overexpressing CaMdr1 assessed as inhibition of fungal growth incubated for 48 hrs by CLSI based broth microdilution assay; assay type: functional
Saccharomyces cerevisiae [23] = test: Antifungal activity against recombinant Saccharomyces cerevisiae Y2721 overexpressing CpErg11/CpCpr assessed as inhibition of fungal growth incubated for 48 hrs by CLSI based broth microdilution assay; assay type: functional
Saccharomyces cerevisiae [24] = test: Antifungal activity against recombinant Saccharomyces cerevisiae Y2767 overexpressing CauErg11 assessed as inhibition of fungal growth incubated for 48 hrs by CLSI based broth microdilution assay; assay type: functional
Saccharomyces cerevisiae [25] = test: Selectivity index, ratio of MIC for antifungal activity against recombinant Saccharomyces cerevisiae Y525 overexpressing CaMdr1 to MIC for antifungal activity against recombinant Saccharomyces cerevisiae Y2411 overexpressing ScErg11; assay type: functional
Candida albicans [26] = test: Antibiofilm activity against Candida albicans SC5314 assessed as increase in matured biofilm distruption incubated for 24 hrs by XTT assay; assay type: functional, organism-based; details: dose 0.25-64 µg/ml
Candida tropicalis [27] = test: Antifungal activity against Candida tropicalis 8915 assessed as inhibition of fungal growth incubated for 48 hrs by CLSI based broth microdilution assay; assay type: functional
Pichia kudriavzevii = test: Antifungal activity against Candida krusei 4996 assessed as inhibition of fungal growth incubated for 48 hrs by CLSI based broth microdilution assay; assay type: functional
Saccharomyces cerevisiae [28] = test: Antifungal activity against recombinant Saccharomyces cerevisiae Y2769 overexpressing CauErg11 K143R mutant assessed as inhibition of fungal growth incubated for 48 hrs by CLSI based broth microdilution assay; assay type: functional
[Candida] auris [29] = Antifungal activity against fluconazole-resistant Candida auris 918 assessed as inhibition of fungal growth incubated for 48 hrs by CLSI based broth microdilution assay; assay type: functional; details: Candidozyma auris
Candida albicans [30] = test: Antibiofilm activity against Candida albicans SC5314 assessed as increase in matured biofilm distruption at 64 ug/ml incubated for 24 hrs by XTT assay relative to control; assay type: functional; details: dose 64 µg/ml
Saccharomyces cerevisiae [31] = test: Antifungal activity against recombinant Saccharomyces cerevisiae Y2765 overexpressing CauMdr1 assessed as inhibition of fungal growth incubated for 48 hrs by CLSI based broth microdilution assay; assay type: functional
Candida albicans [32] = test: Antifungal activity against Candida albicans SC5314 assessed as inhibition of fungal growth incubated for 48 hrs by CLSI based broth microdilution assay; assay type: functional
Saccharomyces cerevisiae [33] = test: Antifungal activity against recombinant Saccharomyces cerevisiae Y570 overexpressing CaCdr1 assessed as inhibition of fungal growth incubated for 48 hrs by CLSI based broth microdilution assay; assay type: functional
[34] = target: T1, Lanosterol 14-alpha demethylase; test: Inhibition of CYP51 in Candida albicans SC5314 assessed as ergosterol level at 0.0625 ug/ml after 8 hrs by GC-MS analysis (reference value: 86.2 %); set-up: scale not given: the % may be the effect or the level left; details: at 0.0625 µg/mL
Candida albicans [35] = test: Antifungal activity against Candida albicans SC5314 assessed as inhibition of hyphae length after 3 hrs by inverted microscopic analysis; assay type: functional, organism-based; details: dose 0.0625-1 µg/ml
Candida tropicalis [36] = test: Potency index, ratio of fluconazole MIC to test compound MIC for antifungal activity against Candida tropicalis 8915 assessed as inhibition of fungal growth incubated for 48 hrs by CLSI based broth microdilution assay; assay type: functional
[Candida] auris [37] = Antifungal activity against fluconazole-resistant Candida auris 919 assessed as inhibition of fungal growth incubated for 48 hrs by CLSI based broth microdilution assay; assay type: functional; details: Candidozyma auris
Candida albicans [38] = test: Antifungal activity against fluconazole-resistant Candida albicans 901 assessed as inhibition of fungal growth incubated for 48 hrs by CLSI based broth microdilution assay; assay type: functional
Nakaseomyces glabratus [39] = test: Antifungal activity against Candida glabrata 537 assessed as inhibition of fungal growth incubated for 48 hrs by CLSI based broth microdilution assay; assay type: functional
Saccharomyces cerevisiae [40] = test: Antifungal activity against recombinant Saccharomyces cerevisiae Y2300 overexpressing ScErg11 assessed as inhibition of fungal growth incubated for 48 hrs by CLSI based broth microdilution assay; assay type: functional
[41] = target: T1, Lanosterol 14-alpha demethylase; test: Inhibition of CYP51 in Candida albicans SC5314 assessed as eburicol level at 0.0625 ug/ml after 8 hrs by GC-MS analysis relative to control; set-up: scale not given: the % may be the effect or the level left; details: at 0.0625 µg/mL
[42] = Cytotoxicity against HUVEC cells assessed as cell viability at 128 ug/ml incubated for 24 hrs by CCK-8 assay relative to control; assay type: toxicity, cell-based; details: human, at 128 µg/mL, read-out: Activity
Saccharomyces cerevisiae [43] = test: Antifungal activity against recombinant Saccharomyces cerevisiae Y2768 overexpressing CauErg11 T132F mutant assessed as inhibition of fungal growth incubated for 48 hrs by CLSI based broth microdilution assay; assay type: functional
Saccharomyces cerevisiae [44] = test: Antifungal activity against recombinant Saccharomyces cerevisiae Y2374 overexpressing CgErg11 assessed as inhibition of fungal growth incubated for 48 hrs by CLSI based broth microdilution assay; assay type: functional

T1 sequence (P10613 whole entry): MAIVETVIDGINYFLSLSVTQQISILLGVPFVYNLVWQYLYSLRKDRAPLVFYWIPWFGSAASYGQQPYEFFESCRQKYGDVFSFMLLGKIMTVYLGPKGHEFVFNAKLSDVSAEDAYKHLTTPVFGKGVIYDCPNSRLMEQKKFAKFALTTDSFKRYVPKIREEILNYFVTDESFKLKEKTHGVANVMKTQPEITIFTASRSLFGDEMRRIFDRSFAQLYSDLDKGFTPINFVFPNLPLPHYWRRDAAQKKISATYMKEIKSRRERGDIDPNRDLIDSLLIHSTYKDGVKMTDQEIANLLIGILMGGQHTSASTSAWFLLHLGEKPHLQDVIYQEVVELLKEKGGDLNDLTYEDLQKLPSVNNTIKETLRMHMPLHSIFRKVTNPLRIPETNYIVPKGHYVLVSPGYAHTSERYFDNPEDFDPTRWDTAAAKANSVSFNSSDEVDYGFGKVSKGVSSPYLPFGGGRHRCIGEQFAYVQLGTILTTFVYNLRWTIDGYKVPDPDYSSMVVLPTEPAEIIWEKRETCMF

`C[C@@H](OCc1ccn(Cc2ccc(F)cc2)n1)[C@](O)(Cn1cncn1)c1ccc(F)cc1F` gave an MIC (Saccharomyces cerevisiae [1]) of 0.016 µg/mL, an MIC (Saccharomyces cerevisiae [2]) of 0.0313 µg/mL and an MIC (Saccharomyces cerevisiae [3]) of 4 µg/mL. The MIC ([Candida] auris [4]) was 16 µg/mL (≈ 35 µM), the MIC (Saccharomyces cerevisiae [5]) was 0.008 µg/mL and the inhibition at 0.625 µg/mL (Candida albicans [6]) was 100%. For the same compound, the MIC (Candida albicans [7]) was at most 0.125 µg/mL, the MIC (Saccharomyces cerevisiae [8]) was 0.0313 µg/mL and the inhibition (Candida parapsilosis [9]) was “Active”. For the same compound, the MIC (Candida parapsilosis [10]) was 0.25 µg/mL (≈ 0.547 µM), the MIC (Saccharomyces cerevisiae [11]) was 0.125 µg/mL and the MIC (Saccharomyces cerevisiae [12]) was 0.125 µg/mL. For the same compound, the MIC (Saccharomyces cerevisiae [13]) was 0.016 µg/mL, the MIC (Candida albicans [14]) was 8 µg/mL (≈ 17.5 µM) and the inhibition at 64 µg/mL (Candida albicans [15]) was over 55%. The inhibition at 0.125 µg/mL (Candida albicans [16]) was 100%, the Activity [17] was over 25% and the Activity [18] was ~ 20%. For the same compound, the Activity [19] was ~ 20%, the Ratio (Candida tropicalis [20]) was 32 and the MIC (Cryptococcus neoformans) was 0.25 µg/mL (≈ 0.547 µM). For the same compound, the inhibition (Nakaseomyces glabratus [21]) was “inactive”, the MIC (Saccharomyces cerevisiae [22]) was 0.25 µg/mL and the MIC (Saccharomyces cerevisiae [23]) was 0.0313 µg/mL. The MIC (Saccharomyces cerevisiae [24]) was 0.0313 µg/mL, the Ratio (Saccharomyces cerevisiae [25]) was 16 and the Activity (Candida albicans [26]) was “Dose-Dependent Effect”. For the same compound, the MIC (Candida tropicalis [27]) was 0.25 µg/mL (≈ 0.547 µM), the MIC (Pichia kudriavzevii) was 4 µg/mL (≈ 8.74 µM) and the MIC (Saccharomyces cerevisiae [28]) was 0.063 µg/mL. It also gave an MIC ([Candida] auris [29]) of 16 µg/mL (≈ 35 µM), an Activity (Candida albicans [30]) of 49.2% and an MIC (Saccharomyces cerevisiae [31]) of 0.25 µg/mL. The MIC (Candida albicans [32]) was at most 0.125 µg/mL, the MIC (Saccharomyces cerevisiae [33]) was 32 µg/mL and the Activity [34] was 1.4%. For the same compound, the inhibition (Candida albicans [35]) was “Dose-Dependent Effect”, the Ratio (Candida tropicalis [36]) was 256 and the MIC ([Candida] auris [37]) was 16 µg/mL (≈ 35 µM). It also gave an MIC (Candida albicans [38]) of 2 µg/mL (≈ 4.37 µM), an MIC (Nakaseomyces glabratus [39]) of at most 0.125 µg/mL and an MIC (Saccharomyces cerevisiae [40]) of 0.063 µg/mL. For the same compound, the Activity [41] was ~ 20%, the viability at 24 h, 128 ug/ml [42] was 75.8% and the MIC (Saccharomyces cerevisiae [43]) was 0.063 µg/mL. The MIC (Saccharomyces cerevisiae [44]) was 0.0313 µg/mL.
